Converted amounts (≈) assume the structure as drawn. The source made the active and inactive calls. The calls are words filed in the database; no cut-off is given here.
How the values were obtained:
Format in all cases: functional
[1] = test system: Listeria monocytogenes; assay: Antibacterial activity against Listeria monocytogenes NCTC 7973 by microdilution method
[2] = test system: Listeria monocytogenes; assay: Bactericidal activity against Listeria monocytogenes NCTC 7973 by microdilution method
[3] = test system: Micrococcus flavus; assay: Antibacterial activity against Micrococcus flavus ATCC 10240 by microdilution method
[4] = test system: Escherichia coli; assay: Antibacterial activity against Escherichia coli ATCC 35210 by microdilution method
[5] = test system: Pseudomonas aeruginosa; assay: Antibiofilm activity against Pseudomonas aeruginosa PAO1 assessed as inhibition of biofilm formation at 0.5 times MIC incubated for 24 hrs by crystal violet staining based ELISA method
[6] = test system: Pseudomonas aeruginosa; assay: Antibiofilm activity against Pseudomonas aeruginosa PAO1 assessed as inhibition of biofilm formation at 0.25 times MIC incubated for 24 hrs by crystal violet staining based ELISA method
[7] = test system: Micrococcus flavus; assay: Bactericidal activity against Micrococcus flavus ATCC 10240 by microdilution method
[8] = test system: Pseudomonas aeruginosa; assay: Antibiofilm activity against Pseudomonas aeruginosa PAO1 assessed as inhibition of biofilm formation at 0.125 times MIC incubated for 24 hrs by crystal violet staining based ELISA method
[9] = test system: Escherichia coli; assay: Bactericidal activity against Escherichia coli ATCC 35210 by microdilution method
[10] = test system: Pseudomonas aeruginosa; assay: Antibacterial activity against Pseudomonas aeruginosa ATCC 27853 by microdilution method
[11] = test system: Pseudomonas aeruginosa; assay: Bactericidal activity against Pseudomonas aeruginosa ATCC 27853 by microdilution method

| SMILES | MIC [1] [µM] | MIC [3] [µM] | MIC [4] [µM] | MIC [10] [µM] | MBC [2] [µM] | inhibition (INH) [5] [%] | inhibition (INH) [6] [%] | MBC [7] [µM] | inhibition (INH) [8] [%] | MBC [9] [µM] | MBC [11] [µM] | inhibition [8] |
| --- | --- | --- | --- | --- | --- | --- | --- | --- | --- | --- | --- | --- |
| CC1(C)[C@@H](O[C@H]2OC[C@H](O)[C@H](O)[C@H]2O[C@H]2O[C@H](CO)[C@@H](O)[C@H](O)[C@H]2OS(=O)(=O)O)CC[C@]2(C)[C@H]3CC=C4[C@@H]5C[C@@](C)(C=O)CC[C@]5(C(=O)O[C@H]5O[C@H](CO)[C@@H](O)[C@H](O)[C@H]5O)CC[C@@]4(C)[C@]3(C)CC[C@@H]12 | 1990 (≈ 2000 µg/mL) | 596 (≈ 601 µg/mL) | 497 (≈ 501 µg/mL) | 994 (≈ 1000 µg/mL) | 2490 (≈ 2500 µg/mL) | 56.6 | 45.9 | 1190 (≈ 1200 µg/mL) | 7.2 | 596 (≈ 601 µg/mL) | 1190 (≈ 1200 µg/mL) |  |
| COc1cc(/C=C/C(=O)OC[C@@]2(O)CO[C@@H](O[C@H]3[C@@H](Oc4c(-c5ccc(O)c(O)c5)oc5cc(O)c(OC)c(O)c5c4=O)O[C@H](CO)[C@@H](O)[C@@H]3O)[C@@H]2O)ccc1O | 935 (≈ 751 µg/mL) | 312 (≈ 250 µg/mL) | 499 (≈ 400 µg/mL) | 312 (≈ 250 µg/mL) | 1250 (≈ 1000 µg/mL) | 20.1 | 4.3 | 623 (≈ 500 µg/mL) |  | 623 (≈ 500 µg/mL) | 623 (≈ 500 µg/mL) | inactive |
| CN[C@@H]1[C@H](O[C@H]2[C@H](O[C@H]3[C@H](O)[C@@H](O)[C@H](N=C(N)N)[C@@H](O)[C@@H]3N=C(N)N)O[C@@H](C)[C@]2(O)C=O)O[C@@H](CO)[C@H](O)[C@H]1O [STREPTOMYCIN] | 344 (≈ 200 µg/mL) | 344 (≈ 200 µg/mL) | 344 (≈ 200 µg/mL) | 344 (≈ 200 µg/mL) | 516 (≈ 300 µg/mL) | 52.5 | 74.6 | 516 (≈ 300 µg/mL) | 89.3 | 516 (≈ 300 µg/mL) | 516 (≈ 300 µg/mL) |  |
| CC1(C)[C@@H](O[C@H]2OC[C@H](O)[C@H](O)[C@H]2O[C@H]2O[C@H](CO)[C@@H](O)[C@H](O)[C@H]2O[C@H]2O[C@H](CO)[C@@H](O)[C@H](O)[C@H]2O)CC[C@]2(C)[C@H]3CC=C4[C@@H]5C[C@@](C)(C=O)CC[C@]5(C(=O)O[C@H]5O[C@H](CO)[C@@H](O)[C@H](O)[C@H]5O)CC[C@@]4(C)[C@]3(C)CC[C@@H]12 | 1150 (≈ 1250 µg/mL) | 919 (≈ 1000 µg/mL) | 919 (≈ 1000 µg/mL) | 689 (≈ 751 µg/mL) | 1840 (≈ 2000 µg/mL) | 53.4 | 39.4 | 1380 (≈ 1500 µg/mL) |  | 1380 (≈ 1500 µg/mL) | 1380 (≈ 1500 µg/mL) | inactive |
| CC1(C)S[C@@H]2[C@H](NC(=O)[C@H](N)c3ccccc3)C(=O)N2[C@H]1C(=O)O [AMPICILLIN] | 1150 (≈ 400 µg/mL) | 716 (≈ 250 µg/mL) | 716 (≈ 250 µg/mL) | 2150 (≈ 751 µg/mL) | 1430 (≈ 501 µg/mL) | 65.3 | 58.9 | 1150 (≈ 400 µg/mL) | 85.2 | 1430 (≈ 501 µg/mL) | 3580 (≈ 1250 µg/mL) |  |

Continued by falling MIC [10], values first:

| MIC [1] [µM] | MIC [3] [µM] | MIC [4] [µM] | MIC [10] [µM] | SMILES | MBC [2] [µM] | inhibition (INH) [5] [%] | inhibition (INH) [6] [%] | MBC [7] [µM] | inhibition (INH) [8] [%] | MBC [9] [µM] | MBC [11] [µM] | inhibition [8] |
| --- | --- | --- | --- | --- | --- | --- | --- | --- | --- | --- | --- | --- |
|  |  |  | 496 (≈ 501 µg/mL) | CC1(C)[C@@H](O[C@H]2OC[C@H](O)[C@H](O)[C@H]2O[C@H]2O[C@H](CO)[C@@H](O)[C@H](O)[C@H]2OS(=O)(=O)O)CC[C@]2(C)[C@H]3CC=C4[C@@H]5C[C@@](C)(CO)CC[C@]5(C(=O)O[C@H]5O[C@H](CO)[C@@H](O)[C@H](O)[C@H]5O)CC[C@@]4(C)[C@]3(C)CC[C@@H]12 |  | 26.5 | 21.9 |  | 12.5 |  | 744 (≈ 751 µg/mL) |  |
| 639 (≈ 400 µg/mL) | 399 (≈ 250 µg/mL) | 399 (≈ 250 µg/mL) | 399 (≈ 250 µg/mL) | COc1c(O)cc2oc(-c3ccc(O)c(O)c3)c(O[C@H]3O[C@H](CO)[C@@H](O)[C@H](O)[C@H]3O[C@@H]3OC[C@](O)(CO)[C@H]3O)c(=O)c2c1O | 1200 (≈ 751 µg/mL) | 58.1 | 12.2 | 639 (≈ 400 µg/mL) |  | 639 (≈ 400 µg/mL) | 639 (≈ 400 µg/mL) | inactive |
| 886 (≈ 751 µg/mL) | 296 (≈ 250 µg/mL) | 591 (≈ 500 µg/mL) | 296 (≈ 250 µg/mL) | COc1cc(/C=C/C(=O)O[C@H]2[C@H](O[C@H]3[C@@H](Oc4c(-c5ccc(O)c(O)c5)oc5cc(O)c(OC)c(O)c5c4=O)O[C@H](CO)[C@@H](O)[C@@H]3O)O[C@@H](C(=O)O)[C@@H](O)[C@@H]2O)ccc1O | 1180 (≈ 1000 µg/mL) | 43 | 26.2 | 473 (≈ 400 µg/mL) | 1.8 | 1180 (≈ 1000 µg/mL) | 473 (≈ 400 µg/mL) |  |

— ChEMBL document CHEMBL4392886, “Antibacterial and Antibiofilm Activity of Flavonoid and Saponin Derivatives from Atriplex tatarica against Pseudomonas aeruginosa” (2019)
